Structures are written as SMILES.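 Values below derive from 48-hour exposures of cells grown in 96-well plates, with endpoints linearly interpolated between the two concentrations bracketing the appropriate inhibition level. The concentration for 50% growth inhibition is given as GI50.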 Activity calls are given as the source filed them. Cut-off read from the data, not from the text of the source: active = GI50 up to about 1.1 µM and inactive = higher.

Test systems include 786-0; A498; CCRF-CEM; EKVX; HCC 2998; Hs-578T; MDA-MB-231; MOLT-4; Malme-3M; NCI-H460; OVCAR-3; OVCAR-5; RXF 393; SF-295; SK-MEL-5; SNB-19; SR; SW-620; T47D; UO-31.
Common to all, as to assay: inhibition of tumour cell growth, NCI panel, 48 h

On to `COC(=O)Cc1ccc2c(c1)Sc1ccc(CC(=O)OC)cc1N2C`, for which the GI50 was 25.5 µM (inactive) in the test with 786-0; 40.6 µM (inactive) in the test on A498; 22 µM (inactive) with CCRF-CEM; 42 µM (inactive) in the test on EKVX; 54 µM (inactive) in the test on HCC 2998; 39.3 µM (inactive) with Hs-578T. Also, the GI50 is 13.4 µM (inactive) in the test with MDA-MB-231; 9.66 µM (inactive) in the test on MOLT-4; 23.8 µM (inactive) in the test with Malme-3M; 33.1 µM (inactive) in the test with NCI-H460; 23.3 µM (inactive) in the test with OVCAR-3; > 65.5 µM (inactive) in the test on OVCAR-5. Moreover, the GI50 with RXF 393 was 25.1 µM (inactive); in the test on SF-295, 22.8 µM (inactive); in the test on SK-MEL-5, 12.3 µM (inactive); with SNB-19, 44 µM (inactive); with SR it was 14.4 µM (inactive); in the test on SW-620, 39.1 µM (inactive). Besides, the GI50 in the test with T47D was 32.2 µM (inactive); with UO-31 it was 16.8 µM (inactive).

In the case of `CCCCCCCCCc1c(Cl)nc(Cl)nc1Cl`, the GI50 in the test on 786-0 is 13.9 µM (inactive); in the test with A498, 19.6 µM (inactive); in the test on CCRF-CEM it was 2.17 µM (inactive); in the test on EKVX, 22.7 µM (inactive); in the test on HCC 2998, 3.74 µM (inactive); with Hs-578T it was 29.2 µM (inactive). The GI50 in the test with MDA-MB-231 was 12.3 µM (inactive); with MOLT-4, 1.96 µM (inactive); in the test on Malme-3M it was 10.8 µM (inactive); with NCI-H460, 18.2 µM (inactive); with OVCAR-3, 17.9 µM (inactive); in the test with OVCAR-5, 21 µM (inactive). Also, the GI50 in the test with RXF 393 was 14.4 µM (inactive); with SF-295 it was 20.7 µM (inactive); with SK-MEL-5 it was 11.7 µM (inactive); with SNB-19 it was 16.2 µM (inactive); with SR, 2.84 µM (inactive); in the test on SW-620, 10.1 µM (inactive). Besides, the GI50 in the test with T47D was 10.1 µM (inactive); with UO-31 it was 18.3 µM (inactive).

Turning to `CC(C)CCCC(C)[C@H]1CC[C@H]2NCCCC[C@]12C` (stereo partly drawn), the GI50 in the test with 786-0 is 3.78 µM (inactive); in the test with A498 it was 9.84 µM (inactive); in the test on CCRF-CEM, 1.37 µM (inactive); in the test with EKVX, 2.28 µM (inactive); with HCC 2998, 1.37 µM (inactive); in the test with Hs-578T it was 6.82 µM (inactive). Moreover, the GI50 in the test on MDA-MB-231 is 2.92 µM (inactive); in the test with MOLT-4, 2.28 µM (inactive); with Malme-3M, 4.61 µM (inactive); in the test on NCI-H460, 2.02 µM (inactive); in the test on OVCAR-3, 11.9 µM (inactive); in the test with OVCAR-5, 2.53 µM (inactive). Besides, the GI50 in the test with RXF 393 was 2.14 µM (inactive); in the test on SF-295, 2.33 µM (inactive); in the test on SK-MEL-5 it was 1.6 µM (inactive); in the test with SNB-19 it was 5.36 µM (inactive); in the test with SR, 2.07 µM (inactive); in the test with SW-620, 2.61 µM (inactive). Also, the GI50 with T47D was 2.77 µM (inactive); with UO-31, 7.36 µM (inactive).

As for `COC(=O)c1c(OC(C)=O)ccc2c1c1cc3ccccc3c(OC(C)=O)c1n2C`, the GI50 was 11 µM (inactive) in the test on 786-0; 13.7 µM (inactive) in the test with A498; 28.1 µM (inactive) in the test with CCRF-CEM; 41.3 µM (inactive) in the test with EKVX; 33.6 µM (inactive) in the test on HCC 2998; 4.43 µM (inactive) in the test on Hs-578T. The GI50 in the test on MDA-MB-231 is 30 µM (inactive); in the test on MOLT-4, 5.75 µM (inactive); in the test on Malme-3M, 14.4 µM (inactive); in the test with NCI-H460 it was 10.4 µM (inactive); in the test with OVCAR-3 it was 23.9 µM (inactive); in the test with OVCAR-5 it was 53.5 µM (inactive). Further, the GI50 in the test with RXF 393 was 24.8 µM (inactive); with SF-295 it was 40.5 µM (inactive); in the test with SK-MEL-5 it was 3.07 µM (inactive); in the test on SNB-19, 68.5 µM (inactive); in the test on SR, 3.69 µM (inactive); with T47D, 4.69 µM (inactive). In the test with UO-31, the GI50 was 17.1 µM (inactive).

Turning to `C1CCN2CC34CC(CC5CCCN(C6CCCC3N6)C54)C2C1` (stereo not drawn), the GI50 in the test with 786-0 was 84.7 µM (inactive); with A498, > 100 µM (inactive); in the test with CCRF-CEM, > 100 µM (inactive); in the test with EKVX it was > 100 µM (inactive); with HCC 2998, > 100 µM (inactive); in the test on Hs-578T it was > 100 µM (inactive). In addition, the GI50 with MDA-MB-231, with MOLT-4, with Malme-3M, with NCI-H460, in the test with OVCAR-3 and in the test with OVCAR-5 was > 100 µM (inactive) in each case. Besides, the GI50 is 78.9 µM (inactive) in the test on RXF 393; > 100 µM (inactive) with SF-295; > 100 µM (inactive) in the test with SK-MEL-5; > 100 µM (inactive) in the test on SNB-19; > 100 µM (inactive) in the test with SR; > 100 µM (inactive) with SW-620. The GI50 in the test on T47D is > 100 µM (inactive).

For `CC/C(N)=N\NC(=O)OC(C)(C)C`, the GI50 in the test with 786-0, with A498, with CCRF-CEM, with EKVX, in the test on HCC 2998 and in the test with Hs-578T was > 100 µM (inactive) in each case. The GI50 in the test with MDA-MB-231, in the test on MOLT-4, in the test on Malme-3M, with OVCAR-3, in the test on OVCAR-5 and in the test with RXF 393 was > 100 µM (inactive) in each case. For the same compound, the GI50 in the test with SF-295, with SK-MEL-5, in the test on SNB-19, with SR, in the test with SW-620 and in the test on T47D was > 100 µM (inactive) throughout. For the same compound, the GI50 in the test on UO-31 is > 100 µM (inactive).

As for `N=c1c2c(=S)n(-c3ccccc3)c(=S)n(-c3ccccc3)c2nc(SCCN2CCOCC2)n1-c1ccccc1`, the GI50 in the test with 786-0 is 1.76 µM (inactive); with A498, 3.52 µM (inactive); with CCRF-CEM it was 1.38 µM (inactive); with EKVX, 3.16 µM (inactive); in the test with HCC 2998, 1.77 µM (inactive); in the test with Hs-578T, 2.67 µM (inactive). For the same compound, the GI50 with MDA-MB-231 was 2.12 µM (inactive); in the test on MOLT-4 it was 1.46 µM (inactive); in the test with Malme-3M, 1.66 µM (inactive); with NCI-H460, 2.49 µM (inactive); in the test on OVCAR-3, 1.8 µM (inactive); in the test with OVCAR-5 it was 18.4 µM (inactive). The GI50 is 1.79 µM (inactive) with RXF 393; 7.19 µM (inactive) with SF-295; 2.73 µM (inactive) with SK-MEL-5; 10.4 µM (inactive) with SNB-19; 0.475 µM (active) with SR; 1.91 µM (inactive) with SW-620. In addition, in the test with T47D, the GI50 was 2.69 µM (inactive).

Turning to `Cc1cn(C2CC(O)C(Cn3nncc3Cn3nc(Br)c(=O)[nH]c3=O)O2)c(=O)[nH]c1=O` (stereo not drawn), the GI50 with 786-0, in the test with A498, in the test with CCRF-CEM, in the test on EKVX, in the test with HCC 2998 and with Hs-578T was > 100 µM (inactive) throughout. For the same compound, the GI50 with MDA-MB-231, with MOLT-4, in the test on Malme-3M, with OVCAR-3, in the test with OVCAR-5 and in the test on RXF 393 was > 100 µM (inactive) in each case. The GI50 in the test on SF-295, in the test with SK-MEL-5, with SNB-19, in the test on SR, in the test with SW-620 and in the test on T47D was > 100 µM (inactive) throughout. In the test with UO-31, the GI50 is > 100 µM (inactive).

For the compound `Cc1c(C#N)c2nnn(-c3ccccc3)c(=O)n2c1-c1ccccc1`, the GI50 with 786-0 was 1.67 µM (inactive); in the test with A498 it was 2.1 µM (inactive); in the test with CCRF-CEM, 2.24 µM (inactive); in the test with EKVX it was 2.61 µM (inactive); with HCC 2998, 3.34 µM (inactive); in the test on Hs-578T, 4.51 µM (inactive). Also, the GI50 is 12.3 µM (inactive) with MDA-MB-231; 1.58 µM (inactive) with MOLT-4; 26.5 µM (inactive) with Malme-3M; 1.92 µM (inactive) with NCI-H460; 0.824 µM (active) with OVCAR-3; 1.89 µM (inactive) in the test with OVCAR-5. Further, the GI50 in the test on RXF 393 was 2.48 µM (inactive); with SF-295, 0.752 µM (active); with SK-MEL-5, 0.471 µM (active); with SNB-19, 3.31 µM (inactive); in the test on SR it was 0.863 µM (active); in the test with T47D, 4.18 µM (inactive). The GI50 in the test with UO-31 was 5.75 µM (inactive).

With `CCN(CC)Cc1ccccc1CC(=O)N1c2ccccc2C(=O)Nc2cccnc21`, the GI50 in the test with 786-0 was 62.2 µM (inactive); in the test with A498, > 100 µM (inactive); with CCRF-CEM, 33.7 µM (inactive); in the test with EKVX, > 100 µM (inactive); in the test with HCC 2998, > 100 µM (inactive); in the test on Hs-578T, > 100 µM (inactive). Moreover, the GI50 was > 100 µM (inactive) in the test on MDA-MB-231; 46.7 µM (inactive) in the test on MOLT-4; > 100 µM (inactive) in the test with Malme-3M; > 100 µM (inactive) in the test with NCI-H460; > 100 µM (inactive) in the test on OVCAR-3; > 100 µM (inactive) with OVCAR-5. In addition, the GI50 with RXF 393 was > 100 µM (inactive); in the test with SF-295 it was > 100 µM (inactive); in the test on SK-MEL-5, > 100 µM (inactive); in the test with SNB-19, > 100 µM (inactive); in the test on SR it was 34.3 µM (inactive); with SW-620 it was > 100 µM (inactive). Moreover, the GI50 in the test with T47D is > 100 µM (inactive).

For the origin of these results see ChEMBL document CHEMBL1201862, “PubChem BioAssay data set” (2004).
